Data: ChEMBL document CHEMBL1140596, “Pharmacophore identification of KSP inhibitors” (Bioorg Med Chem Lett, 2007)

Biological target: T1, Kinesin-like protein KIF11 (Homo sapiens, UniProt P52732)
T1 sequence (P52732 whole entry): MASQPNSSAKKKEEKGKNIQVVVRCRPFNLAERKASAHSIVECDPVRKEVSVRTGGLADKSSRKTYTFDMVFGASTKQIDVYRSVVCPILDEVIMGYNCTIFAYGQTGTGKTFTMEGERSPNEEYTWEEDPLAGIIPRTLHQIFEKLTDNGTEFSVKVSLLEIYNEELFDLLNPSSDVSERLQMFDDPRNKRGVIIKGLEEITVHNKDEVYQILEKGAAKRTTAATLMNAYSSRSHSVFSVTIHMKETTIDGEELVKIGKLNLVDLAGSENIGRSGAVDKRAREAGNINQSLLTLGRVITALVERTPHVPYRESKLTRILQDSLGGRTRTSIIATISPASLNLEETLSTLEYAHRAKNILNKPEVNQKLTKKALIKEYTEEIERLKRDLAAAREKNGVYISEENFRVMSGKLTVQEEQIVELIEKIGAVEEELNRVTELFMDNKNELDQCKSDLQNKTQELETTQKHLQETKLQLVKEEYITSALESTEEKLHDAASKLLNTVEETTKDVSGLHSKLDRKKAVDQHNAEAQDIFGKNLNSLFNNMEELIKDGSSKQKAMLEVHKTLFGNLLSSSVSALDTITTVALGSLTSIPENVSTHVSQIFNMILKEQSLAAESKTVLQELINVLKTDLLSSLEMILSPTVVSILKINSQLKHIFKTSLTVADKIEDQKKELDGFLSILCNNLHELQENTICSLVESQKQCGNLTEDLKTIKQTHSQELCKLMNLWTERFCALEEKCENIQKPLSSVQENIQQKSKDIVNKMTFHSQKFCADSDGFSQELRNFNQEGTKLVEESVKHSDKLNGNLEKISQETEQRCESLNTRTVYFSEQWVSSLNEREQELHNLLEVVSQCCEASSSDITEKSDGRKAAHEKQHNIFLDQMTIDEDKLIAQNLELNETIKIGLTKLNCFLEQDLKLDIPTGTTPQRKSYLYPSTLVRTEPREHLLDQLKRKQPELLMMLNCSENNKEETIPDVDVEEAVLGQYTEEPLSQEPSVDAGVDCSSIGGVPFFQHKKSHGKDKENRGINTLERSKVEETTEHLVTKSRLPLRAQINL
Assay: Inhibition of KSP

IC50	SMILES
27 µM	Oc1cccc(C(c2cc(Cl)c(O)c(Cl)c2)C(c2cc(Cl)c(O)c(Cl)c2)c2cc(Cl)c(O)c(Cl)c2)c1Cl (centres undefined)
0.09 µM	NCCCCCN1C(=O)[C@@H]2Cc3c([nH]c4ccccc34)[C@@H](c3cccc(O)c3)N2C1=O
0.28 µM	Cc1ccc(C(=O)N(CCCN)Cc2nc3cc(Cl)ccc3c(=O)n2Cc2ccccc2)cc1
6.6 µM	CCNCCN1CCN(CCCN2c3ccccc3Sc3ccc(C(F)(F)F)cc32)CC1
22 µM	O=C(O)c1cc2c(cc1S(=O)(=O)O)C1C(C3C2C2(Cl)C(Cl)=C(Cl)C3(Cl)C2(Cl)Cl)C2(Cl)C(Cl)=C(Cl)C1(Cl)C2(Cl)Cl (centres undefined)
145 µM	Oc1cccc2ccc(SSc3ccc4cccc(O)c4n3)nc12
0.026 µM	CC(=O)N1N=C(c2cc(F)ccc2F)C[C@H]1c1ccccc1
5.6 µM	OC1CC2CCC(C1)N2CCCN1c2ccccc2Sc2ccc(Cl)cc21 (centres undefined)
9.7 µM	CN1Cc2c(ccc3c2CCO3)[C@@H](c2ccccc2)C1
0.8 µM	CCCCN1C(=O)[C@@H]2Cc3c([nH]c4ccccc34)[C@@H](c3cccc(O)c3)N2C1=O
0.012 µM	CC[C@H](c1nc2cc(Cl)ccc2c(=O)n1Cc1ccccc1)N(CCCN(C)C)C(=O)c1ccc(Br)cc1

SMILES	IC50
Cc1ccc2c(c1C)CNCC2c1ccccc1 (centres undefined)	8.23 µM
Cc1cc2c(C(C)C)c(O)c(O)c(C=O)c2c(O)c1-c1c(C)cc2c(C(C)C)c(O)c(O)c(C=O)c2c1O [GOSSYPOL]	25 µM
CC(C)(O)C1C[C@@H](O)[C@]2(C)[C@H](CC[C@@]3(C)[C@H]2CC[C@H]2Cc4c([nH]c5ccccc45)[C@@]23C)O1 (some centres undefined)	15 µM
